The data set in a line: Plasma noribogaine glucuronide pharmacokinetics after single oral noribogaine doses in healthy volunteers. It is filed as in vivo, human. The settings on record: for AUC0-216 of noribogaine glucuronide / AUC0-∞ of noribogaine glucuronide / Cmax of noribogaine glucuronide / Tmax of noribogaine glucuronide / t1/2 of noribogaine glucuronide: healthy volunteers, mean (SD), n = 6. How it is done:
Blood was obtained for pharmacokinetic assessments pre-dose and then at 0.25, 0.5, 0.75, 1.0, 1.25, 1.5, 2, 2.5, 3, 3.5, 4, 4.5, 5, 5.5, 6, 7, 8, 10, 12, 14, 18, 24, 30, 36, 48, 60, 72, 96, 120, 168 and 216 hours post-dose. Samples were centrifuged and plasma stored at −70° C. until analyzed. Block 24 hour urine collections were obtained following study drug administration for the 30 and 60 mg cohorts. Aliquots were frozen at −20° C. until analyzed.
Plasma noribogaine glucuronide concentrations were determined in the 30 mg and 60 mg dose groups using a validated sensitive LCMSMS method. Sample preparation involved deproteinization of plasma samples with acetonitrile, drying the samples under a stream of nitrogen and reconstitution of sample with acetonitrile:B.P. water (5:95, v/v) containing 0.1% (v/v) formic acid. The compounds were separated by a 150×2.0 mm Luna 5 μm C18 column and detected with a triple-quadrupole API 4000 or 5000 mass spectrometer using electrospray ionization in positive mode and multiple reaction monitoring. Noribogaine-d4 was used as the internal standard. The precursor-product ion transition values for noribogaine glucuronide were m/z 472.8→297.3, and for the internal standard noribogaine-d4 m/z 301.1→122.2. Analyst® software was used for data acquisition and processing. The ratio of the peak area of noribogaine glucuronide to the internal standard noribogaine-d4 was used for calibration and measurement of the unknown concentration of noribogaine glucuronide. The LLOQ was 0.050 ng/ml noribogaine glucuronide. The calibration curve was between 0.050 and 6.400 ng/ml noribogaine glucuronide. Mobile phases was the same as method A. Binary flow: Initial concentration was 6% mobile phase B; hold at 6% mobile phase B for 0.5 minutes and linear rise to 90% mobile phase B over 2 minutes; hold at 90% mobile phase B for 1 minute and then drop back to 6% mobile phase B over 0.01 minute. Equilibrate system for 3.5 minutes. Total run time was 7 minutes. The within- and between-day assay precision was <11%, and the within- and between-day assay accuracy was <10%.
Noribogaine and noribogaine glucuronide concentrations above the limit of quantification were used to calculate pharmacokinetic parameters using model-independent methods. The maximum plasma concentration (Cmax) and time to maximum plasma concentration (Tmax) were the observed values. Plasma concentration data in the post-distribution phase of the plasma concentration-time plot were fitted using linear regression to the formula ln C=ln Co−t.Kel, where Co was the zero-time intercept of the extrapolated terminal phase and Kel was the terminal elimination rate constant. […] The area under the concentration-time curve (AUC) from time zero to the last determined concentration-time point (tf) in the post distribution phase was calculated using the trapezoidal rule. The area under the curve from the last concentration-time point in the post distribution phase (Ctf) to time infinity was calculated from AUCt-∞=Ctf/Kel. The concentration used for Ctf was the last determined value above the LLOQ at the time point. The total AUC0-∞ was obtained by adding AUCtf and AUCt-∞. Noribogaine apparent clearance (CL/F) was determined using the formula CL/F=Dose/AUC0-∞×1000, and apparent volume of distribution (Vd/F) was determined using the formula Vd/F=(CL/F)/Kel. Total urine noribogaine was the sum of both analytes.

Where [1] appears, read: 30 mg and 60 mg noribogaine dose groups, plasma.
[2] abbreviates: after single oral 30 mg noribogaine, plasma.
[3] abbreviates: after single oral 60 mg noribogaine, plasma.

Bounds are passed on as bounds.

With `CC[C@H]1C[C@@H]2C[C@H]3c4[nH]c5ccc(OC6OC(C(=O)O)C(O)C(O)C6O)cc5c4CCN(C2)[C@@H]13` (some centres unmarked) [Noribogaine glucuronide, noribogaine glucuronide], the “Mean half-life of plasma noribogaine glucuronide” value (30 mg and 60 mg noribogaine dose groups) was 21 to 23 h. For the same molecule, under setting [1], the “time by which noribogaine glucuronide was detected in all subjects” value is ≤ 0.75 h and the “time of peak noribogaine glucuronide concentrations after noribogaine dosing” value was 3 to 4 h. Under setting [2], the “AUC0-216 of noribogaine glucuronide” value was 25.7 (9.1) ng · hr/ml, the “AUC0-∞ of noribogaine glucuronide” value is given as 25.8 (9.3) ng · hr/ml, the “Cmax of noribogaine glucuronide” value is reported as 1.8 (0.6) ng/ml and the “Tmax of noribogaine glucuronide” value is 3.0 (0.6) hr. The “t1/2 of noribogaine glucuronide” value under setting [2] is recorded as 20.6 (4.9) hr. Under setting [3], the “AUC0-216 of noribogaine glucuronide” value is 65.0 (21.5) ng · hr/ml, the “AUC0-∞ of noribogaine glucuronide” value is 67.1 (21.9) ng · hr/ml, the “Cmax of noribogaine glucuronide” value was 4.1 (1.2) ng/ml and the “Tmax of noribogaine glucuronide” value is 3.8 (1.2) hr. Besides, the “t1/2 of noribogaine glucuronide” value under setting [3] is listed as 23.1 (3.0) hr. Moreover, the “proportion of noribogaine glucuronide Cmax and AUC relative to noribogaine” value (both dose groups (30 mg and 60 mg)) was 3-4%.

The values above are taken from patent US9549935B2, “Methods and compositions for treating migraines using noribogaine” (DemeRx, Inc., priority 2014, dated 2017).
